From patent US8455649B2, “Insecticidal substituted azinyl derivatives” (Dow AgroSciences, LLC, priority 2007, dated 2013)

What was measured:
[1] = tested on: Beet Armyworm (Spodoptera exigua); experiment: Insecticidal diet-surface test for beet armyworm; format: in vivo; conditions: 120 h, second-instar larvae on treated diet, 50 μg/cm^2 on diet surface, 5 days after treatment, 8 insects per treatment, read-out: LAPHEG AVG % Mortality (50 μg/cm^2)
Method: (§1) The compounds identified in Table 1 were tested against beet armyworm and corn earworm as follows:
(§2) Insecticidal Test for Corn Earworm (Helicoverpa zea) and Beet Armyworm (Spodoptera exigua).
(§3) To prepare test solution, the test compound was formulated at 2000 ppm solution as 4 mg/2 mL of 9 acetone:1 tap water. 50 μL of the 2000 ppm (equivalent to 50 μg/cm^2 dose on diet surface area) test solution was pipetted upon the surface of 1 mL of lepidopteran diet (Southland Multi-Species Lepidopteran Diet) contained in each of eight wells per insect species (one well=1 replication). A second-instar corn earworm and beet armyworm was placed upon the treated diet in each well once the solvent had air-dried. Trays containing the treated diet and larvae were covered and then held in a growth chamber at 25° C., 50-55% RH, and 16 hr light:8 hr dark for 5 days. Observation were conducted 5 days after treatment and infestation. The number of dead insects of 8 per species per treatment was then determined and the results are given in Table 2 as a percent control at a dose of […].

[2] = tested on: Corn Earworm (Helicoverpa zea); experiment: Insecticidal diet-surface test for corn earworm; format: in vivo; conditions: 120 h, second-instar larvae on treated diet, 50 μg/cm^2 on diet surface, 5 days after treatment, 8 insects per treatment, read-out: HELIZE AVG % Mortality (50 μg/cm^2)
Method: as §1, §2, §3

Row | SMILES | mortality at 50 µg/cm2 [1] | mortality at 50 µg/cm2 [2]
1 | O=C(Nc1ccc(S(=O)(=O)C(F)(F)F)cc1)Nc1nc(OCC(F)(F)F)cc(OCC(F)(F)F)n1 [Compound 59] | 0% | 100%
2 | CN(C(=O)Nc1ccc(OC(F)(F)F)cc1)c1nc(OCC(F)(F)F)cc(OCC(F)(F)F)n1 [Compound 10] | 100% | 0%
3 | CC(C)OCN(C(=O)N(COCc1ccccc1)c1nc(OCC(F)(F)F)cc(OCC(F)(F)F)n1)c1ccc(Br)cc1 [Compound 66] | 100% | 100%
4 | O=C(NNc1ccc(Cl)cc1)Nc1nc(OCC(F)(F)F)cc(OCC(F)(F)F)n1 [Compound 9] | 100% | 88%
5 | O=C(Nc1cc(OCC(F)(F)F)nc(OCC(F)(F)F)n1)N(CCF)c1ccc(OC(F)(F)F)cc1 [Compound 114] | 100% | 100%
6 | CN(C(=O)Nc1nc(OCC(F)(F)F)cc(OCC(F)(F)F)n1)c1c(F)cccc1F [Compound 159] | 100% | 0%
7 | CN(C(=O)Nc1nc(OCC(F)(F)F)cc(OCC(F)(F)F)c1F)c1ccc(C(F)(F)F)cc1 [Compound 184] | 100% | 100%
8 | O=C(Nc1nc(OCC(F)(F)F)cc(OCC(F)(F)F)n1)N(O)c1ccc(Cl)cc1 [Compound 64, N′-[4,6-bis(2,2,2-trifluoroethoxy)pyrimidin-2-yl]-N-(4chlorophenyl)-N-hydroxyurea] | 100% | 100%
9 | CN(C(=O)Nc1nc(OCC(F)(F)F)cc(OCC(F)(F)F)n1)c1ccc(OC(F)(F)F)cc1 [Compound 7, N′-[4,6-bis(2,2,2-trifluoroethoxy)pyrimidin-2-yl]-N-methyl-N-[4-(trifluoromethoxy)phenyl]urea] | 100% | 100%
10 | CN(C(=O)Nc1nc(OCC(F)(F)F)cc(OCC(F)(F)F)n1)c1ccc(F)cc1F [Compound 150] | 100% | 75%
11 | O=C(Nc1ccc(Br)cc1)Nc1cc(C(F)(F)F)cc(OCC(F)(F)F)n1 [Compound 166] | 100% | 100%
12 | CN(C(=O)Nc1nc(OCC(F)(F)F)cc(OCC(F)(F)F)n1)c1ccc(OCC(F)F)cc1 [Compound 71] | 100% | 100%
13 | CCOCN(C(=O)Nc1nc(OCC(F)(F)F)cc(OCC(F)(F)F)n1)c1ccc(OC(F)(F)F)cc1 [Compound 44] | 100% | 100%
14 | CN(C(=O)Nc1cc(C(F)(F)F)cc(OCC(F)(F)F)n1)c1ccc(C(F)(F)F)nc1 [Compound 170] | 75% | 100%
15 | COCCN(C(=O)Nc1nc(OCC(F)(F)F)cc(OCC(F)(F)F)n1)c1ccc(OC(F)(F)F)cc1 [Compound 50] | 100% | 100%
16 | CN(C(=O)Nc1nc(OCC(F)(F)F)cc(OCC(F)(F)F)n1)c1ccc(OC(F)(F)C(F)F)cc1 [Compound 29] | 100% | 100%
17 | CN(C(=O)Nc1nc(OCC(F)(F)F)cc(OCC(F)(F)F)n1)c1ccc(C(F)(F)F)cc1Cl [Compound 160] | 100% | 100%
18 | O=C(Nc1ccc(SC(F)(F)F)cc1)Nc1nc(OCC(F)(F)F)cc(OCC(F)(F)F)n1 [Compound 58] | 100% | 100%
19 | CCN(C(=O)Nc1nc(OCC(F)(F)F)cc(OCC(F)(F)F)n1)c1ccc(Br)cc1 [Compound 40] | 100% | 100%
20 | CN(C)CCN(C(=O)Nc1nc(OCC(F)(F)F)cc(OCC(F)(F)F)n1)c1ccc(OC(F)(F)F)cc1 [Compound 70] | 100% | 100%
21 | O=C(Nc1cc(F)c(C(F)(F)F)c(F)c1)Nc1nc(OCC(F)(F)F)cc(OCC(F)(F)F)n1 [Compound 76] | 100% | 100%
22 | O=C(Nc1ccc(Br)cc1)Nc1nc(OCC(F)(F)F)cc(OCC(F)(F)F)n1 [Compound 22] | 100% | 100%
23 | O=C(Nc1ccc(C(F)(F)F)cc1)Nc1nc(OCC(F)(F)F)c(Cl)c(OCC(F)(F)F)n1 [Compound 145] | 100% | 0%
24 | CCNCCNc1cc(OCC(F)(F)F)nc(NC(=O)Nc2ccc(C(F)(F)F)cc2)n1 [Compound 98] | 100% | 100%
